The values that follow come from article PMC8350397, “GSK137, a potent small-molecule BCL6 inhibitor with in vivo activity, suppresses antibody responses in mice” (The Journal of Biological Chemistry, 2021).

Common to all, as to type: cell-based
The test system of experiment [1] is BCL6 target genes in Farage cells. Put plainly: Semiquantitative real-time PCR of ten BCL6 target genes. The settings on record: 72-h treatment. As to the method:
Farage cells were plated at a density of 3000 cells/100 µl in 96-well plates, incubated overnight at 37 °C then treated with a 10-point, 1:3-fold serial dilution of compound at a top concentration of 20 µM for GSK137 or 10 µM BI3802. Cells were returned to the incubator for 3 days prior to harvesting for RNA isolation. RNA was isolated using the TurboCapture 96 Kit (Qiagen, Hilden, Germany; # 72251), cDNA generated using the High Capacity cDNA Reverse Transcription kit (ABI, Foster City, CA, USA; #4374966) both following the manufacturer’s instructions. qPCR was performed on a ViiA7 real-time PCR machine (Life Technologies, Carlsbad, CA, USA) using the Fast TaqMan ΔΔCt method. Quadruplicate readings were measured for each biological replicate sample. Individual TaqMan assays are listed (Table S4). Expression data were analyzed using the Comparative Ct^(2–ΔΔ^Ct) method (42) The Ct values of the treated samples are compared to vehicle treated samples and normalized to GAPDH. Changes are presented as an average RQ (termed “relative expression”). RQ values between 0 and 1 correspond to a downregulation of gene expression, RQ values greater than 1 correspond to upregulation.
For orientation: Quantitative PCR measures a nucleic acid by following its amplification.

The subject of experiment [2] is ULA cells. As to the kind of experiment: Viability and cumulative cell number analysis, ULA. The conditions noted are these: 14 days; for cell viability: GSK137 0.1-10 μM, BI3802 0.1 and 1 μM. As to the method:
Farage cells were cultured in RPMI1640 (1×) + 20% heat-inactivated fetal bovine serum (FBS), ULA in Iscove's modified Dulbecco's medium + 20% FBS, whereas Karpas422 and VAL were cultured in RPMI1640 + 20% heat-inactivated FBS, all with the addition of 1% Glutamax and 1% sodium pyruvate.
Farage, ULA, Karpas422, and VAL cells were seeded into T25 tissue culture flasks in a total volume of 7 mL per flask at densities of 5 x10^4, 7 x10^4, 5 x10^4, and 4 x10^4 cells/mL, respectively and incubated overnight at 37 °C and 5% CO2. Cells were then treated with a 3-point titration of GSK137 (0.1 µM, 1 µM, and 10 µM) throughout a 14-day time course. Treatments with multiple concentrations of BI3802 were also included for comparison (Farage and Karpas422 cells were treated with 0.01 µM, 0.1 µM, and 1 µM BI3802; ULA cells were treated with 0.1 µM and 1 µM BI3802; VAL cells were treated with 0.1 µM, 1 µM, and 10 µM BI3802). Viability (trypan blue exlcusion) and cumulative cell number were measured on a Vi-CELL XR 2.03 (Beckman Coulter, Brea, CA, USA) on day of seeding and on days 3, 6, 10, and 14.

Experiment [3] concerns the target T1, BCL6 in Farage DLBCL cells (Homo sapiens, UniProt P41182).
T1 construct: endogenous in cells; host or cells: Farage DLBCL cells
Put plainly: Western blot for BCL6 protein degradation. The settings on record: 1 μM for 24 h. The procedure: Cell pellets were lysed in RIPA buffer containing protease/phosphatase inhibitor cocktail and benzonase, protein concentration determined and samples prepared in reducing conditions and 20 µg of protein loaded per lane. Proteins were then transferred onto a nitrocellulose membrane and probed with rabbit BCL6 antibody (Abcam, Cambridge, UK; ab33901) and mouse GAPDH antibody (Abcam; ab9484) at 1:2000 dilution overnight at 4°C. Blots were probed for 1 hour at room temperature with secondary antibodies (goat anti-rabbit LI-COR, 926-32211 and goat anti-mouse LI-COR, 926-68070) at 1:10,000 dilution). Images were obtained on a LI-COR Odyssey CLx Infrared Imaging System using Image Studio software (Version 5.2).
(A western blot detects proteins with antibodies after separation by electrophoresis.)

For experiment [4], the system named is ULA cells. Put plainly: Cell cycle analysis, ULA. The settings on record: GSK137 0.1-10 μM; for fraction of cells in G1: BI3802 1 μM, 2 or 6 days; for dead or dying cells: day 6, BI3802 1 μM. As to the method:
Farage, ULA, KARPAS-422, and VAL cells were seeded into 6-well tissue culture dishes in a total volume of 6 mL at densities of 6.25 x10^3, 7.81 x10^3, 6.25 x10^3, and 1.56 x10^3 cells/mL, respectively and incubated overnight at 37 °C and 5% CO2. Cells were then treated with 0.1 µM, 1 µM, or 10 µM GSK137 or 1 µM BI3802 for 2 or 6 days at 37 °C and 5% CO2. Cell cycle analysis was performed using the Click-iT EdU Alexa Fluor 647 Flow Cytometry Assay Kit (Thermo Fisher Scientific, Waltham, MA, USA) following the manufacturer’s instructions, with volumes adjusted for a […] U-bottom plate, and with an approximately 1 hour treatment with 10 μM EdU. After EdU treatment, approximately 2x10^5 cells per well were transferred into a 96-well, non-tissue culture treated U-bottom plate and stained with 6.7µg/ml final FxCycle Violet Stain for 30 minutes incubation at room temperature. Cells were then analyzed on a flow cytometer (BD FACS Canto […] or LSR FortessaTM X-20 (Becton Dickinson, Franklin Lakes, NJ, USA)) with compensation each day using one cell line and data analyzed using FlowJo software (version 10.3). Percentages of cells in each phase of the cell cycle were then averaged across technical replicates.

Each structure is given as a SMILES string. Entries after “also recorded” stand apart in the source; their conditions may differ.

On to `CNC(=O)COc1cc2cc(Nc3nc(N4C[C@H](C)C[C@H](C)C4)ncc3Cl)ccc2n(C)c1=O` [BI3802, reference compound], for which the “expression changes in a panel of 10 BCL6 target genes” value in experiment [1] is listed as “dose-dependent changes to six of the ten genes”. Besides, in the experiment with ULA cells [2], the cumulative cell number entry was “most sensitive” and the cell viability entry is “only appreciably reduced viability in ULA at the highest concentration used”. Moreover, in experiment [3], the “degradation of intracellular BCL6 protein” value is reported as “degraded BCL6”. For the same molecule, in the experiment on ULA cells [4], the “fraction of cells in G1” value is “increased fraction of cells in G1 at day 2” and the “dead or dying cells” value was around 40%.
Take `Cc1ncccc1[C@H]1C[C@@H](c2cccc3nc(N)ccc23)Nc2c(F)cnn21` [GSK137, 5-((5S,7R)-3-Fluoro-7-(2-methylpyridin-3-yl)-4,5,6,7-tetrahydropyrazolo[1,5-a]pyrimidin-5-yl)quinolin-2-amine]: in experiment [1], the “expression changes in a panel of 10 BCL6 target genes” value was “clear increase only in SOCS2 with some increase in CD69”. Moreover, the cell viability entry with ULA cells [2] is given as “no major change in cell viability; also recorded: only minimal reduction in viability”. For the same molecule, in experiment [3], the “degradation of intracellular BCL6 protein” value is on record as “did not show this activity”. Moreover, in the experiment with ULA cells [4], the “fraction of cells in G1” value is “modest dose and time-dependent G1 cell cycle arrest”; the “dead or dying cells” value is “no increase in dead or dying cells”.
